In patent US7653428B2, “Methods for diagnosing a neurodegenerative condition” (The Brigham and Women's Hospital, Inc., priority 2000, dated 2010):

What was measured:
[1] = cited from earlier work
[2] = tested on: hTSLP (human total soluble lens protein); experiment: Thioflavin-T fluorescence (total β-sheet content of protein mixture); assay type: biochemical; conditions: added during incubation of hTSLP with hAβ1-42
Description: Fluorescence assays were conducted according to a standard protocols.
To determine whether the Aβ-induced aggregation of hTSLP was accompanied by conformational changes, the total β-sheet content of the protein mixture was measured by monitoring thioflavin-T fluorescence.

[3] = tested on: hTSLP (human total soluble lens protein); experiment: Precipitation study of hTSLP incubated with hAβ1-42; assay type: biochemical; conditions: added during incubation of hTSLP with hAβ1-42
Description: Solutions of hTSLP (1 mg/ml) were incubated with or without hAβ1-42 (10 μM; 45 μg/ml) for 0 or 7 days. The resulting mixtures were then centrifuged at 15,000×g for 15 min and separated into pellet and supernatant fractions. The amount of pelleted protein was calculated by subtracting the supernatant protein concentration on Day 7 from the initial concentration on Day 0.

[4] = tested on: bTLP (bovine lens protein); experiment: Spontaneous bovine lens protein (bTLP) aggregation, absorbance at 400 nm; assay type: biochemical; conditions: 37° C. in the dark
Description: Filtered phosphate buffered saline solution (pH 7.4) was treated with chelex and used to make stock solutions (10×) for all reagents (chemical or biological). Protein stock solution at a concentration of 10 mg/mL was prepared from the supernatant as described above. Stock solutions of chelators (ethylenediaminetetraacetic acid (EDTA), diethylenetriaminepentaacetic acid (DTPA), or triethylenetetramine (TETA)) were made up at a concentration of 2 mM freshly prepared in PBS. Stock solutions of Catalase and SOD were freshly prepared in PBS to have an activity of 5000 U/mL and 1000 U/mL respectively. Aβ was prepared as a suspension (100 uM) in PBS or HPLC water by sonicating for three minutes such that only monomers or dimers remained. Metals were prepared as a 10 μM solution; Cu is prepared as Cu:glycine (1:6) from copper sulfate.
(§1) Aggregation experiments were carried out in 96 well black micro titer plates, in the 2dark. Depending on the experiment, a combination of 20 μL of 10× lenticular protein (final concentration 1 mg/mL), 20 μL of 10× chelator solution (final concentration 200 μM), 20 μL of Catalase and/or SOD (final concentrations of 500 U/mL and 100 U/mL respectively), 20 μL of Aβ (final concentration of 10 μM), 20 μL of metal solution (final concentration 1 μM), and an amount of PBS buffer to bring the total volume in the well to 200 μL. hTLP aggregation or bTLP aggregation was monitored by observing an increase in absorbance at 400 nm using a Spectramax UV-V is spectrophotometer.
The influence of Reactive Oxygen Species ((ROS), Cu/Zn Superoxide Dismutase (SOD), Catalase (Cat)) on spontaneous bTLP aggregation was analyzed.

[5] = tested on: hTSLP (human total soluble lens protein); experiment: Turbidity assay of human total soluble lens protein aggregation (absorbance at 400 nm); assay type: biochemical; conditions: for effect on Aβ-potentiated hTSLP aggregation: added during incubation of hTSLP with hAβ1-42; for promotion of hTSLP/hTLP aggregation: hTSLP 1 mg/ml, 37° C. in the dark, peptide added
Description: Human lenses with intact capsules were dissected from whole globes and homogenized in 1 mL HPLC water. The homogenate was centrifuged for at 100,000×g for 1 hour at 4° C. and the supernatant utilized as hTLSP. Protein concentration was determined using a commercially available kit (Pierce). The final hTSLP concentration was 1 mg/mL.
Test solutions of hTSLP (1 mg/ml) were plated to a final volume of 200 μL per well in 96 well microtiter plates with black sidewalls. Peptides and/or inhibitors were added to these solutions as indicated. Plates were incubated in the dark at 37° C. under humidified, CO2-balanced conditions. Turbidity (optical density) was assessed on a SpectraMax-Plus spectrophotometric plate reader set at a wavelength of 400 nm.
as §1

Molecule	absolute log Ks for Cu ([1]; Cu)	absolute log Ks for Fe ([1]; Fe)	absolute log Ks for Zn ([1]; Zn)	effect on increased β-sheet content [2]	effect on protein precipitation [3]	effect on bTLP aggregation [4]	effect on Aβ-potentiated hTSLP aggregation [5]	promotion of hTSLP/hTLP aggregation [5]	promotion of hTSLP/hTLP aggregation ([5]; listed as insulin)
O=C(O)CN(CCN(CC(=O)O)CC(=O)O)CCN(CC(=O)O)CC(=O)O [DTPA, diethylenetriaminepentaacetic acid]	22.0	28.1	19.3	blocked	blocked	reduces the extent of bTLP aggregation	abolished aggregation	–	–
O=C(O)CN(CCN(CC(=O)O)CC(=O)O)CC(=O)O [EDTA, ethylenediaminetetraacetic acid]	–	–	–	–	–	reduces the extent of bTLP aggregation	–	–	–
recombinant human insulin: recombinant human insulin, negative control of approximately the same molecular weight as Aβ	–	–	–	–	–	–	–	none	no effect on hTLP aggregation
superoxide dismutase: antioxidant scavenging enzyme	–	–	–	blocked	blocked	reduces the extent of bTLP aggregation	abolished aggregation	–	–
synthetic rat Aβ1-40: synthetic rat β-amyloid peptide 1-40, relatively redox inert control peptide (DAEFGHDSGFEVRHQKLVFFAEDVGSNKGAIIGLMVGGVV; Amyloid-beta protein 40; UniProt P08592 672-711, looked up)	–	–	–	–	–	–	–	none	–
catalase: antioxidant scavenging enzyme (protein, UniProt P04040 2-527, looked up) Catalase: ADSRDPASDQMQHWKEQRAAQKADVLTTGAGNPVGDKLNVITVGPRGPLLVQDVVFTDEMAHFDRERIPERVVHAKGAGAFGYFEVTHDITKYSKAKVFEHIGKKTPIAVRFSTVAGESGSADTVRDPRGFAVKFYTEDGNWDLVGNNTPIFFIRDPILFPSFIHSQKRNPQTHLKDPDMVWDFWSLRPESLHQVSFLFSDRGIPDGHRHMNGYGSHTFKLVNANGEAVYCKFHYKTDQGIKNLSVEDAARLSQEDPDYGIRDLFNAIATGKYPSWTFYIQVMTFNQAETFPFNPFDLTKVWPHKDYPLIPVGKLVLNRNPVNYFAEVEQIAFDPSNMPPGIEASPDKMLQGRLFAYPDTHRHRLGPNYLHIPVNCPYRARVANYQRDGPMCMQDNQGGAPNYYPNSFGAPEQQPSALEHSIQYSGEVRRFNTANDDNVTQVRAFYVNVLNEEQRKRLCENIAGHLKDAQIFIQKKAVKNFTEVHPDYGSHIQALLDKYNAEKPKNAIHTFVQSGSHLAAREKANL	–	–	–	blocked	blocked	reduces the extent of bTLP aggregation	abolished aggregation	–	–
